Test results as given in patent US20080234254A1, “Inhibitors of Histone Deacetylase” (UNIVERSITY OF LEEDS, priority 2004, published 2008).
Like-named read-outs stand apart in the source and are kept apart here.

Test system: HCC-2998
Assay: Screening against cancer cell lines: HCC-2998 (Colon)
Format: cell-based
Excerpt: Screening of Benzamide Derivatives Against Cancer Cell Lines Tables 1 and 2 tabulate by way of example the results obtained for compounds (4) and (6).
6 colon cancer cell lines were screened against both compound (4) and MS275.

In the case of `C=C(CN1CCc2ccccc2C1)c1ccc(C(=O)Nc2ccccc2N)cc1` [Compound (4), N-(2-Amino-phenyl)-4-[1-(3,4-dihydroisoquinolin-2(1H)-ylmethyl)vinyl]benzamide], the TGI (HCC-2998, Colon, Table 1) was 0.4 µM, the GI50 (Homo sapiens, HCC-2998, Colon, Table 1, read-out: GI50) was 0.09 µM and the CC50 (Homo sapiens, HCC-2998, Colon, Table 1, read-out: LC50 (the source's name)) was 2 µM. It also gave a GI50 (Homo sapiens, HCC-2998, colon cancer, comparison versus MS275, read-out: potency (quantity not named; values match GI50 of Table 1)) of 0.09 µM.
